The values below come from ChEMBL document CHEMBL3991601, “The target landscape of clinical kinase drugs” (Science, 2017).

Calls of active or inactive are those of the source. Rule as the data show it, for most assays here: actives have a measured Kd and inactives only a lower limit.

For orientation: Kd means the constant that tells how readily two partners part at equilibrium.

For assay [1], the target named is T1, Activin receptor type-1 (Homo sapiens, UniProt Q04771).
T1 sequence (Q04771 whole entry): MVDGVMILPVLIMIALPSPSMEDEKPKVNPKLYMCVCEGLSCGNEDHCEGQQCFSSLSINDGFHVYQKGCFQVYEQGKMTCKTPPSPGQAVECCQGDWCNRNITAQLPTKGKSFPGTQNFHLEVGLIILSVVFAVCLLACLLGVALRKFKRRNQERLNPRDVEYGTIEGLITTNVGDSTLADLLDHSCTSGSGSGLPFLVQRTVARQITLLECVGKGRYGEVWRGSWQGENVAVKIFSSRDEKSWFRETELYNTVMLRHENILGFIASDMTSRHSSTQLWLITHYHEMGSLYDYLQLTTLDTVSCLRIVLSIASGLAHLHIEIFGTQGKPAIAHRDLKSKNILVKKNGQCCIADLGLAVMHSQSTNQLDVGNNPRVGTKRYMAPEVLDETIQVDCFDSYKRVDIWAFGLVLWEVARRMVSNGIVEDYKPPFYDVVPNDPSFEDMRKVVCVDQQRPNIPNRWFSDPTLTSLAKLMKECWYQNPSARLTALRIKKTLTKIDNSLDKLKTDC

Assay [2] has as its target Bone morphogenetic protein receptor type-1B (Homo sapiens, UniProt O00238).
Assay [3] has as its target ATP-dependent RNA helicase DDX3X (Homo sapiens, UniProt O00571).
Assay [4] addresses T2, Probable ATP-dependent RNA helicase DDX6 (Homo sapiens, UniProt P26196).
T2 sequence (P26196 whole entry): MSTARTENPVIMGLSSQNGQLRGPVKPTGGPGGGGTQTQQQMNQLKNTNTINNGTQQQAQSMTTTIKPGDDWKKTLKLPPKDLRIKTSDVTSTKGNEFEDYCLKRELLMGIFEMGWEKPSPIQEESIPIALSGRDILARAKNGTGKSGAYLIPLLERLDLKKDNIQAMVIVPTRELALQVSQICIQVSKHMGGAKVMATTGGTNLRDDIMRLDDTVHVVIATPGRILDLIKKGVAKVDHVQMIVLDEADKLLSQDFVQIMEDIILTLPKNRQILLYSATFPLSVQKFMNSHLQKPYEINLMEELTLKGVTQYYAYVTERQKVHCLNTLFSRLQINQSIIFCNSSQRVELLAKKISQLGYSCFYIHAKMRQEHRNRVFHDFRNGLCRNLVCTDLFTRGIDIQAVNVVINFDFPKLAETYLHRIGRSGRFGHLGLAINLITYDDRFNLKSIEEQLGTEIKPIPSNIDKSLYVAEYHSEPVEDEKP

The target in assay [5] is Eukaryotic translation initiation factor 2-alpha kinase 1 (Homo sapiens, UniProt Q9BQI3).
Sequence of Eukaryotic translation initiation factor 2-alpha kinase 1 (Q9BQI3 whole entry): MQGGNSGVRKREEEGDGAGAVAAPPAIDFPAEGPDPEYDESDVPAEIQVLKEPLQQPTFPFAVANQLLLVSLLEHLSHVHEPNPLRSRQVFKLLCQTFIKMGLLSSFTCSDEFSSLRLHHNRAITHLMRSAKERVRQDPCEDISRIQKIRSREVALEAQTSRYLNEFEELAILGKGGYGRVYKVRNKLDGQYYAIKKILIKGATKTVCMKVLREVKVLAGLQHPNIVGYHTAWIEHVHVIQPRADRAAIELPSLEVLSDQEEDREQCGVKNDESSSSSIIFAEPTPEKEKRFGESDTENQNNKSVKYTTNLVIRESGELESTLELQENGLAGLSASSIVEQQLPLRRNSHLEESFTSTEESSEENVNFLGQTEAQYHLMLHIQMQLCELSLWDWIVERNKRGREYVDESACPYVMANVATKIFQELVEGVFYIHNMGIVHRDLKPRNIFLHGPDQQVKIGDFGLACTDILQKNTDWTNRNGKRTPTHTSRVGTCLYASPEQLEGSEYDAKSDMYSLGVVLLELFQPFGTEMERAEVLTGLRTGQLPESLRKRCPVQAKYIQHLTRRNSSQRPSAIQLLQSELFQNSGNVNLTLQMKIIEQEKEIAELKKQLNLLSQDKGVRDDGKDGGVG
Assay [6] has as its target T3, Mitogen-activated protein kinase 15 (Homo sapiens, UniProt Q8TD08).
T3 sequence (Q8TD08 whole entry): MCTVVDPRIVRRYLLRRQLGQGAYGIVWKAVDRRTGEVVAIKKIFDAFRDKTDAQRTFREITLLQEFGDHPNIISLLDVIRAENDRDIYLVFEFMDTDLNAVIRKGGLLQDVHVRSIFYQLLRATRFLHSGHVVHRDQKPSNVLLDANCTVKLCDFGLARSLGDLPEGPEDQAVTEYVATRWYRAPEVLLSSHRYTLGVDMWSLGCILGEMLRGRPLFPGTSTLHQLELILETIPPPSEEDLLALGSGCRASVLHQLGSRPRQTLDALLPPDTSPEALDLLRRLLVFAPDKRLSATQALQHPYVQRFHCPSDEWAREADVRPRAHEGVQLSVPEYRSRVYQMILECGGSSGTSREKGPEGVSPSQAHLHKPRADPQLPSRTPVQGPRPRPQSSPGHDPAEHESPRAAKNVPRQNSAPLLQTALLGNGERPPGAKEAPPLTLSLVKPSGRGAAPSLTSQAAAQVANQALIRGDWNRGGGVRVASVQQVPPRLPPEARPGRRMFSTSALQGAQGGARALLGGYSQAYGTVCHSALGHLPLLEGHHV

The target in assay [7] is cAMP-dependent protein kinase type II-alpha regulatory subunit (Homo sapiens, UniProt P13861).
Sequence of cAMP-dependent protein kinase type II-alpha regulatory subunit (P13861 whole entry): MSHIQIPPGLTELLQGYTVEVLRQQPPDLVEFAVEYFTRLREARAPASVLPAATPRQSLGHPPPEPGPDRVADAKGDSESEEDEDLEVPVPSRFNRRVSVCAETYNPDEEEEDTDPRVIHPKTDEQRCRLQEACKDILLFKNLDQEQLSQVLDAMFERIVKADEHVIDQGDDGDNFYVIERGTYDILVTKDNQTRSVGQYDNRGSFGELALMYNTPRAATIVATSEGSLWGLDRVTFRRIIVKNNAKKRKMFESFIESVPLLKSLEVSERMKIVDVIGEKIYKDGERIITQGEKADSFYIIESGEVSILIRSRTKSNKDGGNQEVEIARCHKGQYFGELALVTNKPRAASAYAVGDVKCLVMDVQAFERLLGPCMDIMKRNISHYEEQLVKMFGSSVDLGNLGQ
Assay [8] concerns the target Protein kinase C delta type (Homo sapiens, UniProt Q05655).
Assay [9] has as its target Ribosomal protein S6 kinase alpha-1 (Homo sapiens, UniProt Q15418).
Assay [10] addresses Tyrosine-protein kinase Yes (Homo sapiens, UniProt P07947).
Also: in the data inactive means no Kd found up to 30 µM.

Sequence of Protein kinase C delta type (Q05655 whole entry): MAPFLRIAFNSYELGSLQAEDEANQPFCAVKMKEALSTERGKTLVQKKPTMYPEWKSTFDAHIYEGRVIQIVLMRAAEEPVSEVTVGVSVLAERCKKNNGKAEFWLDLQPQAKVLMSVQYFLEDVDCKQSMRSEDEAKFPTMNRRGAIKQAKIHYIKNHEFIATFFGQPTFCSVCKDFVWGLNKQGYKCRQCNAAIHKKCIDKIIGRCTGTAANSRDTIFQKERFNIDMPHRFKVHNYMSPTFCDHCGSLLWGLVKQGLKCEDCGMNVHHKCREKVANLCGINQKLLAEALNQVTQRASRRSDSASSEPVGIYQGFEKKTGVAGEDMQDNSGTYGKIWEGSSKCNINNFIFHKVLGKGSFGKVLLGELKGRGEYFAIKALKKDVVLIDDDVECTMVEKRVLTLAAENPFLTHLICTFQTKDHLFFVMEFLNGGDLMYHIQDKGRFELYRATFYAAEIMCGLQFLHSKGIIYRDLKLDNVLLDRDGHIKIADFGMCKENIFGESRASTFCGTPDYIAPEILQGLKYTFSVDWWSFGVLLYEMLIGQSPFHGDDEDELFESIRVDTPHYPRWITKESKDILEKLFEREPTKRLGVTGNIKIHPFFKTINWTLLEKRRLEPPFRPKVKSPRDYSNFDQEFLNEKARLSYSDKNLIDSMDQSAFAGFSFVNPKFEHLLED
Sequence of Tyrosine-protein kinase Yes (P07947 whole entry): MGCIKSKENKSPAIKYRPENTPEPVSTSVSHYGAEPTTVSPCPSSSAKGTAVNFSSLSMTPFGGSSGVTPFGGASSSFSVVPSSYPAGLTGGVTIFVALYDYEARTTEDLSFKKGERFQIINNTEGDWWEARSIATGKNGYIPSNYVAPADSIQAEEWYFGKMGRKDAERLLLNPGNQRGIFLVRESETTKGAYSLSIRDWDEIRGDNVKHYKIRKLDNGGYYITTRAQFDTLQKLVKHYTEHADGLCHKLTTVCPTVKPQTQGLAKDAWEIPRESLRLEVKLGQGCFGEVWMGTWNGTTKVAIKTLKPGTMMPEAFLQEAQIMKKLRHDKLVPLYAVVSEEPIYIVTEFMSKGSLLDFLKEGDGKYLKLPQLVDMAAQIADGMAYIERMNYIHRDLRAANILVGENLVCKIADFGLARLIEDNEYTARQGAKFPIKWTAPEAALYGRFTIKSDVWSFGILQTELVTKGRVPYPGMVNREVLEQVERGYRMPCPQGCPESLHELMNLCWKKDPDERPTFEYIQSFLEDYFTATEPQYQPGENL
Sequence of Bone morphogenetic protein receptor type-1B (O00238 whole entry): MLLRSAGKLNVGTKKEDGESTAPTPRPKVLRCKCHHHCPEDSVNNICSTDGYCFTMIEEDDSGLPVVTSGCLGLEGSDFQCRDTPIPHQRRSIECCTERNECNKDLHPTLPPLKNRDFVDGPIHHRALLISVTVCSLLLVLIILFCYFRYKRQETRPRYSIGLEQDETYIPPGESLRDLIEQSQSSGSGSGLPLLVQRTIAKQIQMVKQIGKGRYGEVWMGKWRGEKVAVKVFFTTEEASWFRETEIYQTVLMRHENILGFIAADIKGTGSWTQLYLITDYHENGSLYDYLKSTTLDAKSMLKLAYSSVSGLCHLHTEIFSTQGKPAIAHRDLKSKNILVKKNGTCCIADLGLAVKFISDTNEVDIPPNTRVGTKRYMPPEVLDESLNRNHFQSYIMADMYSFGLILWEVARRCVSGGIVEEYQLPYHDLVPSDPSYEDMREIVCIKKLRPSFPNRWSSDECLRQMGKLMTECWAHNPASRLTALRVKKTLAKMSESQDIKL
Sequence of Ribosomal protein S6 kinase alpha-1 (Q15418 whole entry): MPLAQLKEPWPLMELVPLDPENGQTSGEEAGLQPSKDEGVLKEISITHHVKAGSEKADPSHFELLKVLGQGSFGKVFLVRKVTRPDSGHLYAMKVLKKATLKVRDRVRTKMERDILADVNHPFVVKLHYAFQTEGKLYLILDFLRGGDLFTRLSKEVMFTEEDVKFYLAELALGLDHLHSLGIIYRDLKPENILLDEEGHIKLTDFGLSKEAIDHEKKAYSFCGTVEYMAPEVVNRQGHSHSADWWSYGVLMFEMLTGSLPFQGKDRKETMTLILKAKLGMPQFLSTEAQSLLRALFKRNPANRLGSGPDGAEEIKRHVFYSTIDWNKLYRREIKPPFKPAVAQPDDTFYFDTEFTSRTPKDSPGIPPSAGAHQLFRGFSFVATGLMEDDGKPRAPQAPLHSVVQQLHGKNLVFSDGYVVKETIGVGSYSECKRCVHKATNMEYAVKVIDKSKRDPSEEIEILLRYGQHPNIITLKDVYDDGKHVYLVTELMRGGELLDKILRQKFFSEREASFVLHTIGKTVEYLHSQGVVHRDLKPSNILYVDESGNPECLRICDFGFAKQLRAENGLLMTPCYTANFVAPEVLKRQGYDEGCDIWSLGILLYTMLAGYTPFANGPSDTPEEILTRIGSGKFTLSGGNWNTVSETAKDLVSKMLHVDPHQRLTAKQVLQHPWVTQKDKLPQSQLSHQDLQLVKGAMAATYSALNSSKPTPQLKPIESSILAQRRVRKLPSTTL
Sequence of ATP-dependent RNA helicase DDX3X (O00571 whole entry): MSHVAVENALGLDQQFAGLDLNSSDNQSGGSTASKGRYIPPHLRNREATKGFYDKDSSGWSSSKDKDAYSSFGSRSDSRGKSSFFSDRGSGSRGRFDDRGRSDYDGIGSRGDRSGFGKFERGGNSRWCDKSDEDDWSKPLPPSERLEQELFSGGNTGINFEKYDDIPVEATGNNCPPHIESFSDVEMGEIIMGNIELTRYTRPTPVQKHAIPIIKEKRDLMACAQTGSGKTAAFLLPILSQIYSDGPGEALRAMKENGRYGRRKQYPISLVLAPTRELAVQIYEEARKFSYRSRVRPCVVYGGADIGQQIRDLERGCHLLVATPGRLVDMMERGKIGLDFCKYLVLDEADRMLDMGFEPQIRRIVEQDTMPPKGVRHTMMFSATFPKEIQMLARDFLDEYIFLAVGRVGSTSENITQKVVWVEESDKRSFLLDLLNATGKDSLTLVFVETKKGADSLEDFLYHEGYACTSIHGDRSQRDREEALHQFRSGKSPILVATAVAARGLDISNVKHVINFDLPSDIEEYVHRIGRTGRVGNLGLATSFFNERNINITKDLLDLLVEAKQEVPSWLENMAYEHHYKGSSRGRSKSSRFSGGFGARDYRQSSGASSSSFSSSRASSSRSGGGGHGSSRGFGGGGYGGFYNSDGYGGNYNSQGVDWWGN

For the molecule `O=C1NC(=O)/C(=C/c2ccc3nccc(-c4ccncc4)c3c2)S1` [GSK-1059615], the Kd in [1], in assay [2], in assay [3], in [4], in assay [5] and in assay [6] was > 30 µM (inactive) each time. The Kd in assay [7], in assay [8], in assay [9] and in assay [10] was > 30 µM (inactive) each time.

For `COc1cc(CCc2cc(NC(=O)c3ccc(N4C[C@@H](C)N[C@@H](C)C4)cc3)n[nH]2)cc(OC)c1` [AZD-4547], the Kd is > 30 µM (inactive) in [1]; > 30 µM (inactive) in [2]; > 30 µM (inactive) in assay [3]; > 30 µM (inactive) in assay [4]; 0.17 µM (active) in [5]; > 30 µM (inactive) in assay [6]. Moreover, the Kd in assay [7], in assay [8], in [9] and in [10] was > 30 µM (inactive) in each case.

As to `C[C@@H]1CN(Cc2ccc(F)cc2)[C@@H](C)CN1C(=O)c1cc2c(C(=O)C(=O)N(C)C)cn(C)c2cc1Cl` [TALMAPIMOD], the Kd in [1], in assay [2], in assay [3], in assay [4], in assay [5] and in [6] was > 30 µM (inactive) throughout. The Kd in assay [7], in assay [8], in assay [9] and in [10] was > 30 µM (inactive) each time.

`CCS(=O)(=O)N1CC(CC#N)(n2cc(-c3ncnc4[nH]ccc34)cn2)C1` [BARICITINIB]: the Kd in assay [1] is > 30 µM (inactive); in assay [2] it was > 30 µM (inactive); in assay [3], > 30 µM (inactive); in [4], > 30 µM (inactive); in [5], 0.335 µM (active); in assay [6], > 30 µM (inactive). Further, the Kd in assay [7] was > 30 µM (inactive); in assay [8], 1.07 µM (active); in [9], > 30 µM (inactive); in assay [10] it was > 30 µM (inactive).

As to `COc1ccc(-c2ccc3c(N4CCOC[C@@H]4C)nc(N4CCOC[C@@H]4C)nc3n2)cc1CO` [AZD-8055], the Kd in assay [1], in [2], in assay [3], in assay [4], in assay [5] and in assay [6] was > 30 µM (inactive) in each case. For the same molecule, the Kd in [7], in assay [8], in assay [9] and in assay [10] was > 30 µM (inactive) in each case.

As for `CN1CC[C@@H](c2c(O)cc(O)c3c(=O)cc(-c4ccccc4Cl)oc23)[C@@H]1CO`, the Kd in assay [1], in [2], in assay [3], in [4], in assay [5] and in assay [6] was > 30 µM (inactive) in each case. Besides, the Kd in assay [7] was > 30 µM (inactive); in assay [8] it was 2.39 µM (active); in assay [9], > 30 µM (inactive); in assay [10], > 30 µM (inactive).

As to `Cn1cc(-c2ccc3nnc(C(F)(F)c4ccc5ncccc5c4)n3n2)cn1` [JNJ-38877605], the Kd in assay [1], in [2], in assay [3], in [4], in assay [5] and in assay [6] was > 30 µM (inactive) throughout. Moreover, the Kd in [7], in [8], in [9] and in [10] was > 30 µM (inactive) in each case.

In the case of `Cc1c(F)cc(C(=O)NC2CC2)cc1-c1ccc(C(=O)NCC(C)(C)C)cn1` [LOSMAPIMOD], the Kd in assay [1], in [2], in assay [3], in [4], in assay [5] and in assay [6] was > 30 µM (inactive) each time. Besides, the Kd in [7], in [8], in [9] and in assay [10] was > 30 µM (inactive) throughout.

As for `COc1cc(N2CCC(N3CCN(C)CC3)CC2)ccc1Nc1ncnc(Nc2ccccc2S(=O)(=O)C(C)C)n1` [ASP-3026], the Kd in assay [1] was > 30 µM (inactive); in [2] it was 1.82 µM (active); in assay [3], > 30 µM (inactive); in assay [4] it was > 30 µM (inactive); in assay [5], > 30 µM (inactive); in assay [6] it was > 30 µM (inactive). Moreover, the Kd in [7] is > 30 µM (inactive); in assay [8], > 30 µM (inactive); in [9], > 30 µM (inactive); in assay [10], 0.781 µM (active).

In the case of `CNC(=O)c1ccc(-c2cnc3ncc(Cc4ccc5ncccc5c4)n3n2)cc1F` [CAPMATINIB], the Kd in assay [1], in assay [2], in assay [3], in assay [4], in assay [5] and in assay [6] was > 30 µM (inactive) throughout. Moreover, the Kd in assay [7], in [8], in [9] and in assay [10] was > 30 µM (inactive) throughout.

Turning to `C[C@@H](c1ccc2nccn2c1)n1nnc2ncc(-c3cnn(C)c3)nc21` [SAVOLITINIB], the Kd in assay [1], in [2], in assay [3], in [4], in [5] and in assay [6] was > 30 µM (inactive) in each case. The Kd in assay [7], in assay [8], in assay [9] and in assay [10] was > 30 µM (inactive) in each case.

`CN1CCC(COc2cnc(-c3cccc(Cn4nc(-c5cccc(C#N)c5)ccc4=O)c3)nc2)CC1` [TEPOTINIB]: the Kd in assay [1], in [2], in assay [3], in [4], in [5] and in assay [6] was > 30 µM (inactive) throughout. Also, the Kd in assay [7], in [8], in assay [9] and in [10] was > 30 µM (inactive) in each case.

As to `CCc1cnn2c(NCc3ccc[n+]([O-])c3)cc(N3CCCC[C@H]3CCO)nc12` [DINACICLIB], the Kd in assay [1], in assay [2], in assay [3], in assay [4], in assay [5] and in assay [6] was > 30 µM (inactive) each time. Also, the Kd in assay [7], in assay [8], in assay [9] and in assay [10] was > 30 µM (inactive) throughout.
